# Results as given in patent US20050059661A1, “Use of tyrosine kinase inhibitors for the treatment of inflammatory processes” (Boehringer Ingelheim International GmbH, priority 2003, published 2005).
# Test system: cigarette smoke-induced influx of neutrophilic granulocytes into the lung tissue
# Assay: Test 1: Inhibition of the smoke-induced accumulation of granulocytes in the lung tissue (MPO activity)
# Assay type: in vivo, rats (Sprague-Dawley)
# Conditions: male Sprague-Dawley rats, 5 days smoke from 8 cigarettes per day, intratracheal dose 30 min before exposure, lung tissue MPO, linear regression
# Description: • A=4-[(R)-(1-phenyl-ethyl)amino]-6-{[4-((R)-6-methyl-2-oxo-morpholin-4-yl)-1-oxo-2-buten-1-yl]amino}-7-methoxy-quinazoline, • B=4-[(3-chloro-4-fluorophenyl)amino]-6-({4-[N,N-bis-(2-methoxy-ethyl)-amino]-1-oxo-2-buten-1-yl}amino)-7-[(tetrahydrofuran-2-yl)methoxy]-quinazoline, • C=4-[(3-chloro-4-fluoro-phenyl)amino]-6-[2-(2,2-dimethyl-6-oxo-morpholin-4-yl)-ethoxy]-7-methoxy-quinazoline, • D=4-[(3-chloro-4-fluoro-phenyl)amino]-6-[2-(2,2-dimethyl-6-oxo-morpholin-4-yl)-ethoxy]-7-[(R)-(tetrahydrofuran-2-yl)methoxy]-quinazoline and • E=4-[(3-chloro-4-fluoro-phenyl)amino]-7-[2-(2,2-dimethyl-6-oxo-morpholin-4-yl)-ethoxy]-6-[(S)-(tetrahydrofuran-2-yl)methoxy]-quinazoline were tested as follows to investigate their anti-inflammatory activity: Test 1: Inhibition of the Smoke-Induced Accumulation of Granulocytes in the Lung Tissue Lung indications: Inhibition of the cigarette smoke-induced influx of neutrophilic granulocytes into the lung tissue by the EGF-receptor kinase inhibitor 4-[(R)-(1-phenyl-ethyl)amino]-6-{[4-((R)-6-methyl-2-oxo-morpholin-4-yl)-1-oxo-2-buten-1-yl]amino}-7-methoxy-quinazoline (compound A). Male rats (strain: Sprague-Dawley) weighing from 250-300 g were exposed for 5 days to the smoke from 8 cigarettes per day. The animals in the group treated with compound A, anaesthetised with isofluran, were given an intratracheal dose of 0.03 or 0.1 mg/kg of compound A in a volume of 0.05 ml each day 30 min before the start of the exposure to smoke. On the last day of the test the animals were killed 4 hours after the last exposure to smoke and the lung tissue was removed. A sample of 70-200 mg was taken from each lung and placed in a test tube prepared with 1 ml of 0.5% hexadecyltrimethylammonium bromide. The samples were homogenised for 15 sec using an Ultraturrax. The homogenised samples were centrifuged at 15700 g in an Eppendorf bench centrifuge for 5 min at ambient temperature. […] of the supernatant was removed and mixed with […] of phosphate buffer (50 mmol/l) containing 0.197 mg/ml of O-dianisidine dihydrochloride. After 10 minutes' incubation at ambient temperature the absorption was measured with a spectral photometer at a wavelength of 450 nm. The dosage which led to a 50% inhibition of the MPO activity (═ID50) was determined by linear regression.
row,Structure (SMILES),ID50 (dosage which led to a 50% inhibition of the MPO activity) [mg/kg]
1,"CC1(C)CN(CCOc2cc3c(Nc4ccc(F)c(Cl)c4)ncnc3cc2OC[C@H]2CCCO2)CC(=O)O1 [D, 4-[(3-chloro-4-fluoro-phenyl)amino]-6-[2-(2,2-dimethyl-6-oxo-morpholin-4-yl)-ethoxy]-7-[(R)-(tetrahydrofuran-2-yl)methoxy]-quinazoline]",1.1
2,"COc1cc2ncnc(N[C@H](C)c3ccccc3)c2cc1NC(=O)C=CCN1CC(=O)O[C@H](C)C1 [A, 4-[(R)-(1-phenyl-ethyl)amino]-6-{[4-((R)-6-methyl-2-oxo-morpholin-4-yl)-1-oxo-2-buten-1-yl]amino}-7-methoxy-quinazoline]",0.3
3,"COCCN(CC=CC(=O)Nc1cc2c(Nc3ccc(F)c(Cl)c3)ncnc2cc1OCC1CCCO1)CCOC (stereo not drawn) [B, 4-[(3-chloro-4-fluorophenyl)amino]-6-({4-[N,N-bis-(2-methoxy-ethyl)-amino]-1-oxo-2-buten-1-yl}amino)-7-[(tetrahydrofuran-2-yl)methoxy]-quinazoline]",0.2
4,"CC1(C)CN(CCOc2cc3ncnc(Nc4ccc(F)c(Cl)c4)c3cc2OC[C@@H]2CCCO2)CC(=O)O1 [E, 4-[(3-chloro-4-fluoro-phenyl)amino]-7-[2-(2,2-dimethyl-6-oxo-morpholin-4-yl)-ethoxy]-6-[(S)-(tetrahydrofuran-2-yl)methoxy]-quinazoline]",0.4
5,"COc1cc2ncnc(Nc3ccc(F)c(Cl)c3)c2cc1OCCN1CC(=O)OC(C)(C)C1 [C, 4-[(3-chloro-4-fluoro-phenyl)amino]-6-[2-(2,2-dimethyl-6-oxo-morpholin-4-yl)-ethoxy]-7-methoxy-quinazoline]",1

# Same assay, conditions: rats, intratracheal 0.03 or 0.1 mg/kg daily for 5 days, 30 min before smoke exposure
row,Structure (SMILES),inhibition of the smoke-induced accumulation of granulocytes (myeloperoxidase content of lung tissue)
1,"COc1cc2ncnc(N[C@H](C)c3ccccc3)c2cc1NC(=O)C=CCN1CC(=O)O[C@H](C)C1 [A, 4-[(R)-(1-phenyl-ethyl)amino]-6-{[4-((R)-6-methyl-2-oxo-morpholin-4-yl)-1-oxo-2-buten-1-yl]amino}-7-methoxy-quinazoline]",significant (p<0.005) inhibition
